Results as given in US10732174B2, “Three dimensional tissues for high-throughput assays” (INVIVOSCIENCES, INC., priority 2008, dated 2020).
“Also recorded” adds a separate entry of the source. Where two headings read alike, the source gives them in different places.

Columns and labels:
[1] = tested on: hydrogel tissue constructs (HTCs) of REF-52 cells; assay: HTC force measurement (Palpator); type: cell-based, rat; details: for effect on tissue (HTC contractile) force, in words: 3 and 24 hr
Experimental: Rat embryonic fibroblasts (REF-52) were cultured in Dulbecco's Modified Eagle's Medium (DMEM, MT10013CM, Fisher Scientific, Pittsburgh, Pa.) supplemented with 10% fetal bovine serum (FBS, S11050, Atlanta Biologicals, Lawrenceville, Ga.). Cells were sub-cultured every two to three days. To make hydrogel tissue constructs (HTCs), REF-52 cells (between passages 40 to 70) were dissociated from culture plates by treating with 0.05% trypsin (MT-25-025-CI, Fisher Scientific) for 10 to 15 min. The cells were then centrifuged at 1000 g for 10 min. The trypsin solution was decanted and the cell pellet was re-suspended in 10% FBS DMEM medium. This cell suspension was diluted in HTC tissue solution to achieve a final concentration of 8×10^5 cells per ml. The HTC tissue solution consisted of 10% FBS DMEM, 1 mg/ml of type 1 collagen (354249, BD Biosciences, San Jose, Calif.) in 0.02 N acetic acid, sufficient sodium hydroxide to neutralize the acid in the collagen, and sufficient 5×DMEM to compensate for the volume of collagen and NaOH. To prevent premature collagen polymerization, the HTC tissue solution was kept on ice until its distribution into our custom-made tissue molds (FIG. 3). Each mold contains 8 separate HTC-forming wells with two built-in horizontal support bars. Three hundred microliters of the HTC tissue solution was aliquoted into each well in these molds and then incubated for 30 min at 37° C. and 5% CO2. After the incubation period, […] of 10% FBS DMEM medium was added to each well and the molds were further incubated for 48 hr. In this time, the solution contracted to form HTCs that span the support bars in the wells.
The Palpator™ (as described in U.S. Pat. No. 7,449,306, which is incorporated herein by reference in its entirety) was used to quantify the contractility of the HTCs. The molds were placed on the stage of the Palpator™ which automatically inserted a probe into each well and stretched the individual HTC. The probe was connected to a force transducer which measured the resistance force induced in the HTC in response to stretch and exported the values to a computer for recording. A custom Matlab algorithm was used to process and analyze the force data to report a numerical parameter that is indicative of the active cell force in the HTC. To obtain stable measurements of the HTC contractile force, it was necessary to precondition the HTCs by stretching three times prior to actual force measurement. Preconditioning was not necessary if subsequent force measurements were within 30 min of the previous stretch. HTCs at 24 hr post treatment were always pre-conditioned before force measurement.

[2] = tested on: F-actin in HTCs of REF-52 cells; assay: F-actin content of HTCs, Alexa-phalloidin, plate reader; type: cell-based, rat; details: HTC treated 24 hours
Description: FIG. 5A-FIG. 5W. FIG. 5A is a photograph of The Palpator™. The system includes an isometric force transducer (a), probe baths (b), and a hydrogel tissue construct (HTC) stage (c) on a temperature regulator plate (d). FIG. 5B is a photograph showing the x-y-z motion robotic arm which positions the force transducer with attached probe above the HTCs and lowers the probe onto the tissue for force measurement. FIG. 5C is a schematic of the robotic arm with attached force transducer and probe. FIG. 5D is a photograph of the probe positioned 1 mm above the mid-plane of a HTC (a) and then lowered until it first touches (b) and then stretches (c) the tissue. FIG. 5E is a graph showing representative forces recorded during HTC indentation. Arrows a, b, and c show force measurements associated with probe positions shown in (D). […] HTCs were preconditioned, then treated with varying concentrations of the four drugs as indicated. Forces were measured at 3 (f) and 24 hr (g). Force measurements were expressed relative to control, medium treated, HTCs (Fc). […] HTCs treated with drugs for 24 hours were fixed and labeled with Alexa 568 conjugated phalloidin. Fluorescence intensity was read on a plate reader and plotted relative to control, media treated, HTCs (Ic). […] At 3 hr (i-m) and 24 hr (n-r, s-w) post treatment, representative monolayers were fixed and stained with Alexa 568 conjugated phalloidin and DAPI. […] Note the larger scale bar in (g) and (l). Images were captured on a Leica SP5 confocal microscope using a water-immersion 63× objective, scale bar=50 μm.
Tissue force is maintained through the integrity of the cellular cytoskeleton, especially actin and myosin. To quantify amount of F (filamentous)-actin in the HTCs treated with the compounds, the HTCs were stained with Alexa […] conjugated phalloidin. […] This is in agreement with our previous report that CD mediated reduction in tissue force was due to the loss of intact F-actin. However, force reductions by H1152 and DNP were not related to the loss of F-actin. […] By 24 hours, short F-actins were re-distributed within less-spread (FIG. 5O) and binuclear (FIG. 5T) cells.

HTCs of REF-52 cells = tested on: HTCs of REF-52 cells
Experimental: 3-(4,5-dimethylthiazol-2-yl)-2,5-diphenyltetrazolium (MTT, M-6494, Invitrogen) was used to quantify cell viability in the HTCs. At predetermined times following drug exposure, MTT was added to each well to achieve 0.5 mg/ml. MTT was left in the wells for 2 hr and then removed. The formazan dye that forms in the cells were then suspended in 500 μl of isopropanol (S77795, Fisher Scientific) containing 0.1 N hydrochloric acid. Two hundred microliters of the formazan solution is then put into a 96-well plate well and read on the Synergy HT plate reader. Absorbance at 570 and 650 nm were recorded and the difference (A570-A650) was used as the absorbance intensity of the formazan.
All chemicals are from Sigma (Sigma-Alrich, St. Louis, Mo.) unless otherwise noted. […] DNP was diluted to 1 M in DMSO and then to 100, 10, and 1 mM in -F/G/P DMEM. Following HTC preconditioning and background force (i.e. pre-drug) measurement, 50 μl of the appropriate drug dilutions were added to each well to achieve the desired treatment concentration. Fifty microliters of -F/G/P DMEM was added to the control wells. Upon drug addition, medium in the wells was mixed by pipetting four times.
Finally to measure the compounds' effects on cellular viability, the assay using 3-(4,5-Dimethylthiazol-2-yl)-2,5-diphenyltetrazolium bromide (MTT) was performed. In cells, the yellow MTT is converted to a purple colored formazan by succinate dehydrogenase and this change can be quantified by light absorbance between 500-600 nm was quantitatively recorded using the plate reader.

REF-52 cells = details: for cytotoxicity signs in cell monolayers (confluency, nuclei, shrinkage): 24 hours; for F-actin morphology in cells, microscopy: REF monolayers, 3 hr and 24 hr
Experimental: REF-52 cells were plated on 35 mm culture dishes (50,000 cells) in 10% FBS medium (2 ml). Cells are incubated over night and then treated with compounds. […] Cells were incubated with drugs for 24 hours prior to fixing. To fix, treated cells were rinsed once with 2 ml of phosphate buffered saline (PBS, D5652) and then incubated in 1 ml of 4% paraformaldehyde (Sigma) solution (in PBS) for 30 min. Fixed cells are rinsed twice and then stored in 2 ml of PBS.
Fixed REF-52 cells were permeabilized by incubating in 1 ml of 0.1% Triton (BP151, Fisher Scientific) solution (in PBS) for 15 min. Permeabilized cells were rinsed twice with 1 ml TBST buffer and then blocked with 1 ml of 5% goat serum in TBST for 1 hour. One milliliter of 1:200 diluted Alexa 568 conjugated phalloidin (A12380, Invitrogen) in TBST with 2% goat serum was then added to the cells. This staining solution also contained 400 nM of DAPI (D9564). Cells were stained for 30 min and then rinsed twice with TBST. Labeled cells were mounted with Vectashield (Vector Laboratories, Burlingame, Calif.), covered with a cover slide and then sealed with nail polish. The plate was then inverted on to a Leica SP5 confocal microscope (Leica Microsystems, Bannockburn, Ill.) and imaged with 63× water immersion objective. Alexa 568 was excited using the 543 laser line and DAPI was excited using a MaiTai multi-photon laser.

[3] = tested on: human epidermoid cell lines; details: reported; cited from earlier work
[4] = tested on: mitochondrial membrane potential in HTCs of REF-52 cells; assay: HTC TMRE labeling, mitochondrial potential; type: cell-based, rat; details: for effect on mitochondrial potential, in words: HTC, TMRE; for EC50: Rattus norvegicus, read-out: EC50 of TMRE signal reduction (MMP uncoupling)
Experimental: The ethyl ester of tetramethylrhodamine (TMRE, T-669, Invitrogen, Carlsbad, Calif.) was used to quantify the mitochondrial potential of the HTCs. HTCs were incubated in 100 nM TMRE for 30 min and then in phenol red free 10% FBS DMEM for 60 min. Phenol red free medium was used to prevent interference with TMRE fluorescence reading. Following labeling, HTCs were preconditioned with three stretches and then prior to background force measurement. HTC TMRE signal was then read on a Synergy HT plate reader (Biotek Instruments, Winooski, Vt.). A custom made adapter plate was used to position the tissue molds on the plate-holding rack of the plate reader. Fluorescence signal was read from the bottom using the 543/590 excitation/emission filter set and a gain setting of 50. TMRE fluorescence intensity was also read following each force measurement at predetermined time points after drug treatments.
TMRE is cationic and accumulates in the mitochondria as a function of MMP. […] More detailed investigation of DNP's effect on TMRE accumulation using confocal microscopy improved signal detection in both monolayers and HTCs (FIG. 6C and FIG. 6D).

HepG2 cells = details: previously reported; cited from earlier work
[5] = HTC, 3 hr treatment, read-out: EC50 of tissue force reduction

In the case of C=C1[C@@H](C)[C@H]2[C@H](Cc3ccccc3)NC(=O)[C@]23[C@H](OC(C)=O)/C=C/[C@@](C)(O)C(=O)[C@@H](C)C/C=C/[C@H]3[C@@H]1O [CD, Cytochalasin D], the “effect on tissue (HTC contractile) force, in words” value (shortened to “effect on tissue … in words”) ([1]; HTC) is reported as “dose-dependently reduced HTC contractile force; also recorded: dose-dependently reduced tissue force; also recorded: very effective at reducing HTC force”, the EC50 [1, 5] is reported as ~0.1 µM and the “F-actin content of HTCs (Alexa-phalloidin intensity)” value (shortened to “F-actin content of HTCs”) [2] is reported as “significantly reduced”. For the same molecule, the “F-actin content of HTCs” value ([2]; listed as Cytochalasin D) was “reduced cellular F-actin”, the “reduction of MTT signal” value (HTCs of REF-52 cells; 0.2 μM, 24 hours) was 40% and the “reduction of MTT signal” value (HTCs of REF-52 cells; 2 μM, 24 hours) was 40%. For the same molecule, the “cytotoxicity signs in cell monolayers (confluency, nuclei, shrinkage)” value (shortened to “cytotoxicity signs in cell monolayers”) (REF-52 cells) was “cytotoxicity was evident”, the “F-actin morphology in cells, microscopy” value (REF-52 cells) was “extensive actin depolymerization by 3 hr; also recorded: extensive disruption of F-actin as early as 3 hours” and the LD50 [3] was 5 to 30 µM.

In the case of O=[N+]([O-])c1ccc(O)c([N+](=O)[O-])c1 [DNP, 2,4-dinitrophenol], the “reduction in EC50 of effect on tissue force” value ([1]; 24 hr vs 3 hr) is reported as 65 fold, the “concentration needed to reduce tissue force relative to H-1152 or CD” value ([1]; HTC) is reported as ~10,000 fold and the “effect on tissue … in words” value ([1]; HTC) is reported as “dose-dependently reduced HTC contractile force; also recorded: also reduced tissue force; also recorded: very effective at reducing HTC force”. For the same molecule, the EC50 ([1]; Rattus norvegicus, REF52, 3 h, read-out: EC50 of tissue force reduction) was 1300 µM, the EC50 ([1]; Rattus norvegicus, REF52, 24 h, read-out: EC50 of tissue force reduction) was 20 µM and the “F-actin content of HTCs” value [2] was “comparable to controls”. For the same molecule, the “reduction in TMRE EC50 by 24 hours treatment” value ([4]; 24 hr vs 3 hr) was 3.6 fold, the “effect on mitochondrial potential, in words” value [4] was “dose-dependently uncoupled HTC mitochondrial potential; also recorded: extensive uncoupling effect” and the EC50 ([4]; REF52, 3 h) was ~340 µM. For the same molecule, the EC50 ([4]; REF52, 24 h) was ~95 µM, the “effect on HTC viability / MTT signal, in words” value (HTCs of REF-52 cells; 24 hours) was “did not affect MTT signal” and the “cytotoxicity signs in cell monolayers” value (REF-52 cells) was “less than that of control”. For the same molecule, the “F-actin morphology in cells, microscopy” value (REF-52 cells) was “limited to no effects; also recorded: did not dramatically affect F-actin morphology”.

In the case of C[S+](C)[O-] [DMSO, dimethyl sulfoxide], the “formazan absorbance relative to control (A/Ac)” value (HTCs of REF-52 cells; rat, 24 h, 10 %) is reported as 0.11±9×10^−3.

For C=C(C)[C@H]1Cc2c(ccc3c2O[C@@H]2COc4cc(OC)c(OC)cc4[C@@H]2C3=O)O1 [ROT, rotenone], the “effect on tissue … in words” value ([1]; HTC) was “dose-dependently reduced HTC contractile force; also recorded: also reduced tissue force; also recorded: moderate negative impact”, the “F-actin content of HTCs” value [2] was “inconclusive” and the “effect on mitochondrial potential, in words” value [4] was “moderate negative impact”. The “reduction of MTT signal” value (HTCs of REF-52 cells; 10 μM, 24 hours) was 40%, the “cytotoxicity signs in cell monolayers” value (REF-52 cells) was “cytotoxicity was evident; also recorded: less than that of control; also recorded: Noticeable nuclear fragmentation” and the “F-actin morphology in cells, microscopy” value (REF-52 cells) was “limited to no effects; also recorded: did not dramatically affect F-actin morphology”. The toxicity (HepG2 cells) was 25%.

With Cc1cncc2cccc(S(=O)(=O)N3CCCNC[C@@H]3C)c12 [H-1152] the “effect on tissue … in words” value ([1]; HTC) was “dose-dependently reduced tissue force”, the “effect on tissue … in words” value ([1]; HTC, listed as RKI) was “very effective at reducing HTC force” and the “effect on tissue … in words” value ([1]; HTC, listed as RKI1) was “dose-dependently reduced HTC contractile force; also recorded: effectively reduced tissue force”. The EC50 [1, 5] was ~0.1 µM, the EC50 ([1]; HTC, time not stated at place, read-out: force-reducing EC50) was 0.1 µM and the “F-actin content of HTCs” value [2] was “comparable to controls”. For the same molecule, the “effect on mitochondrial potential, in words” value ([4]; listed as RKI) was “limited mitochondrial and viability toxicity”, the “effect on mitochondrial potential, in words” value ([4]; listed as RKI1) was “minimal uncoupling activity” and the “F-actin morphology in cells, microscopy” value (REF-52 cells; listed as RKI) was “did not dramatically affect F-actin morphology”. For the same molecule, the “F-actin morphology in cells, microscopy” value (REF-52 cells; listed as RKI1) was “limited to no effects”.
